Measurements as given in US20230151376A1, “ORGANELLE TRANSFORMANT SCREENING METHOD” (NATIONAL UNIVERSITY CORPORATION KOBE UNIVERSITY, priority 2020, published 2023).

Experiments:
[1] = system: Arabidopsis thaliana cultured cells 87T; assay: Concerted sensitivity test on herbicide and antibiotic in Arabidopsis thaliana cultured cells; assay type: cell-based; conditions: for inhibition of the growth rate in combination with spectinomycin: both spectinomycin and herbicide, effect not observed with individual administration of the same concentration
Protocol: Arabidopsis thaliana cultured cells 87T were used in the experiment. Media comprising different concentrations of a group of herbicides and spectinomycin using a redifferentiation medium (Q. Yu. et al. Plant Physiol. 2017. 175(1). 186-193) as the base were added to each well of a 24-well plate. Specifically, a plate with varying concentrations of the group of herbicides of 0, 0.1, 1, 10, 50, and 100 μM in the direction of the X-axis of the plate and varying concentrations of an antibiotic spectinomycin of 0, 1, 10, and 100 μg/mL in the direction of the y-axis was prepared (FIG. 9A). Pinoxaden, tepraloxydim, tralkoxydim, cyhalofop butyl, and haloxyfop were used as the group of herbicides in each plate. 100 μL of cultured cells was added to each well and cultured under light-dark conditions in an artificial climate incubator. On days 3, 7, and 15 after culture, the growth status was checked to study the concerted sensitivity of a herbicide and antibiotic. • Results

[2] = system: Oryza sativa callus; assay: Herbicide selection of Oryza sativa callus on redifferentiation selection medium after plasmid bombardment; assay type: cell-based, Oryza sativa japonica (Nipponbare); conditions: callus introduced with pNC (no resistance) sensitive; redifferentiated individuals counted after about 6 weeks; tested 0.1-4.0 μM
Protocol: For the experiment, Oryza sativa japonica (Nipponbare) was used. Threshed Oryza sativa seeds were placed in a callus inducing medium, i.e., an N6D medium (Z. Shimatani et al. Nat Biol. 2017), and grown under conditions of 25° C. away from light within an artificial climate incubator to induce a primary callus. To prepare a callus plate for introducing a gene, the primary callus that had been actively growing for several weeks since induction of the callus from seeds was strained using a sterilized mesh. The refined callus was uniformly applied on filter paper placed on a callus inducing medium plate. A gene was introduced to a plate obtained by culturing the callus for 3 to 4 days within the artificial climate incubator. For selection of a transformant, a redifferentiation medium which is an MSRE medium (Z. Shimatani et al. Nat Biol. 2017) added with a suitable herbicide was used and cultured under conditions of 31.5° C. in a light-dark cycle of 12 hours within the artificial climate incubator. […]
After introduction of a gene, the plate was subjected to expansion culture under dark conditions in the artificial climate incubator for 3 to 4 days. […] The number of individuals redifferentiated from the callus clumps was counted as the selected individual count. • <Detection of Transgenesis in a Created Individual>

SMILES | inhibition of the growth rate in combination with spectinomycin [1] | concentration at which a selection effect of the herbicide can be expected [2] | further results
CCCCOC(=O)[C@@H](C)Oc1ccc(Oc2ccc(C#N)cc2F)cc1 [cyhalofop butyl] |  |  | inhibition of the growth rate by herbicide alone ([1]; herbicide alone, within the range of concentrations studied (0-100 μM)): not observed
CC(Oc1ccc(Oc2ncc(C(F)(F)F)cc2Cl)cc1)C(=O)O (centres unmarked) [haloxyfop] | significant inhibition of the growth rate | ≥ 0.1 µM | 
CCc1cc(C)cc(CC)c1-c1c(OC(=O)C(C)(C)C)n2n(c1=O)CCOCC2 [pinoxaden] | significant inhibition of the growth rate |  | herbicide concentration at which inhibition of growth was observed ([1]; herbicide alone, tested 0-100 μM, growth checked on days 3, 7, 15): ≥ 10 µM
CN[C@@H]1[C@H](O)[C@H](NC)[C@H]2O[C@@]3(O)C(=O)C[C@@H](C)O[C@H]3O[C@@H]2[C@H]1O [spectinomycin] |  |  | colour of cultured cells (chloroplast development) ([1]; 100 μg/mL spectinomycin): Change in color to yellow; inhibition of the growth rate by spectinomycin alone ([1]; only spectinomycin, concentration range studied (0-100 μg/mL)): not inhibited
CCO/N=C(\CC)C1=C(O)CC(c2c(C)cc(C)cc2C)CC1=O (centres unmarked) [tralkoxydim] |  | ≥ 0.5 µM | 
